This note sets out measurements from ChEMBL document CHEMBL5465560, “Selectivity Literature for EUbOPEN Chemogenomic Library” (2024).

A value given as a limit tells only on which side of the number the result lay.

In test [1] the target is Phosphatidylinositol 3-kinase catalytic subunit type 3 (Homo sapiens, UniProt Q8NEB9). Briefly: Selectivity interaction (Adapta Assay) EUB0001632a PIK3C3. Particulars: at 10 µM.
In test [2] the target is Citron Rho-interacting kinase (Homo sapiens) (UniProt O14578). Nature of the test: Selectivity interaction (KinomeScan (DiscoverX)) EUB0001619a CIT. Particulars: at 1 µM.
The target of the next test is Nischarin (Homo sapiens) (UniProt Q9Y2I1). Briefly: Selectivity interaction (Eurofins CEREP Diversity Profile (receptors and ion channels)) EUB0000279b NISCH. Particulars: at 10 µM.
Test [3] addresses 5'-AMP-activated protein kinase catalytic subunit alpha-1 (Homo sapiens, UniProt Q13131). Nature of the test: Selectivity interaction (ActivX KiNativ screen (kinase selectivity in THP-1 cell lysates)) EUB0000639a PRKAA1. The test is classed as subcellular. Particulars: lysate, at 0.01 µM.
Test [4] deals with DNA (cytosine-5)-methyltransferase 3B (Homo sapiens) (UniProt Q9UBC3). Particulars: at 10 µM.
For test [5], the target named is T1, Activin receptor type-1 (Homo sapiens) (UniProt Q04771).
T1 sequence (whole entry): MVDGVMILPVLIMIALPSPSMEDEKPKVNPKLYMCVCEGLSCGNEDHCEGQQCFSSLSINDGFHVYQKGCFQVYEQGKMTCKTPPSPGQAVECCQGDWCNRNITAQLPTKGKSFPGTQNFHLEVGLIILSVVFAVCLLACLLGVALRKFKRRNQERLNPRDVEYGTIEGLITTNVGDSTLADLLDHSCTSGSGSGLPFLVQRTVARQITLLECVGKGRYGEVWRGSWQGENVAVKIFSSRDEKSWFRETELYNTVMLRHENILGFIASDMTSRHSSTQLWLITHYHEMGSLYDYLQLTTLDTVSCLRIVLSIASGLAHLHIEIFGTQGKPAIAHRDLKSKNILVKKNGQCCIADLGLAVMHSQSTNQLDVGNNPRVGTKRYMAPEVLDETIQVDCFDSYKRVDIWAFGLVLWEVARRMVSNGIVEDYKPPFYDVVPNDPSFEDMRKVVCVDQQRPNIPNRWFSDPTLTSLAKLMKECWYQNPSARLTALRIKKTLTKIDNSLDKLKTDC
Nature of the test: Selectivity interaction (ProQinase) EUB0000171b ACVR1.

For test [6], the target named is T2, Phosphorylase b kinase gamma catalytic chain, liver/testis isoform (Homo sapiens) (UniProt P15735).
T2 sequence (whole entry): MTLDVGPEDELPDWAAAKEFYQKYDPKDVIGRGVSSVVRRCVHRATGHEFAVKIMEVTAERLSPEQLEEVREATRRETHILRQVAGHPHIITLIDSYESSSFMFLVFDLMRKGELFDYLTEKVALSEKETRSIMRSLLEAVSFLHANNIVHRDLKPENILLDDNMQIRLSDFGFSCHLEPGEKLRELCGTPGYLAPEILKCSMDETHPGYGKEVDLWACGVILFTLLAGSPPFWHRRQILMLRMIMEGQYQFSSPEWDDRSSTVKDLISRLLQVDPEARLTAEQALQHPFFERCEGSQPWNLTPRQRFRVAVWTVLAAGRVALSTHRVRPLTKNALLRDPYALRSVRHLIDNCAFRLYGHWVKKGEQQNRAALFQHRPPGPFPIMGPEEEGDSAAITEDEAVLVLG
Nature of the test: Selectivity interaction (Ambit KINOMEscan and KiNATiv profiling in Jurkat cells) EUB0000090b PHKG2. The test is classed as cell-based. Particulars: at 1 µM.

Test [7] deals with T3, Serine/threonine-protein kinase ULK1 (Homo sapiens) (UniProt O75385).
T3 sequence (whole entry): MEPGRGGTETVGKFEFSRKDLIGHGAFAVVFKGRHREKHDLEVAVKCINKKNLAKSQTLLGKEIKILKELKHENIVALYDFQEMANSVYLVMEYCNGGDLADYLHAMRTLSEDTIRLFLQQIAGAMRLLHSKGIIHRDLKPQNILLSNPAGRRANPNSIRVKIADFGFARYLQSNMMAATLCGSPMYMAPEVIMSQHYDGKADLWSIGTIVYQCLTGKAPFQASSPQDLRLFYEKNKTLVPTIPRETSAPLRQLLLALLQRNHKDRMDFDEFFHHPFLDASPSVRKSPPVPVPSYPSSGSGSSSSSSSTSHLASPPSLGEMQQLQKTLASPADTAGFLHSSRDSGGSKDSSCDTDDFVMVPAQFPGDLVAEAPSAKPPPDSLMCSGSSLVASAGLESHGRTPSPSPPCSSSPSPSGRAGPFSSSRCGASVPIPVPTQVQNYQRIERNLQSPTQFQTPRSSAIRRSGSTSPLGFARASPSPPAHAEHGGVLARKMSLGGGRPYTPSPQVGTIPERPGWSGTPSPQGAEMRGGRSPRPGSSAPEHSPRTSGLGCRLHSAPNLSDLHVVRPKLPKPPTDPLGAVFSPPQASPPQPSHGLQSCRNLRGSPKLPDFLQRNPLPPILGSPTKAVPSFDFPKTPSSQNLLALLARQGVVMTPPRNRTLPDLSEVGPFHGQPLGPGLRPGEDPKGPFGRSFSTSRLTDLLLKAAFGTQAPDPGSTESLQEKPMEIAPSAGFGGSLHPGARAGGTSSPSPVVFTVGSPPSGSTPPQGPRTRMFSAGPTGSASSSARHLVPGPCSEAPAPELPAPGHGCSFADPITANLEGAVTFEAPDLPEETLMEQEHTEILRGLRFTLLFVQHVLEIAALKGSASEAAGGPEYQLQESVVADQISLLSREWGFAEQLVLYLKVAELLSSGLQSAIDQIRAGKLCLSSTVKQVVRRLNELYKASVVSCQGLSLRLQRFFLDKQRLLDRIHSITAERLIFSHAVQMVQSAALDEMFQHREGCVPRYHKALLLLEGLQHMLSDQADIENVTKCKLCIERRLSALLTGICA
Nature of the test: Selectivity interaction (KinomeScan (DiscoverX)) EUB0001049a ULK1. Particulars: at 1 µM.

Test [8] deals with CDK9/cyclin T1 (Homo sapiens) (UniProt O60563+P50750). Briefly: Selectivity interaction (Upstate Kinase Profiler service (Millipore)) EUB0000056c CDK9. In kind it is protein-complex assay. Particulars: at 1 µM.
The target in test [9] is Epidermal growth factor receptor (Homo sapiens, UniProt P00533). Nature of the test: (§1) Selectivity interaction (KinomeScan (DiscoverX)) EUB0001079a EGFR. Particulars: at 1 µM.
The subject of test [10] is Epidermal growth factor receptor (Homo sapiens), P00533 [L858R,T790M]. The test is described as §1. Particulars: at 1 µM.
In test [11] the test system is Epidermal growth factor receptor (Homo sapiens), P00533 [T790M]. Described as §1. Particulars: at 1 µM.
Test [12] deals with Epidermal growth factor receptor (Homo sapiens), P00533 [UNDEFINED MUTATION]. The test is described as §1. Particulars: at 1 µM.
Test [13] deals with Epidermal growth factor receptor (Homo sapiens), P00533 [L861Q]. The test is described as §1. Particulars: at 1 µM.
In a further test the target is Insulin receptor (Homo sapiens, UniProt P06213). Nature of the test: Selectivity interaction (Millipore kinase profiler) EUB0000124b INSR. Particulars: at 10 µM.
Test [14] concerns the target Serine/threonine-protein kinase PAK 2 (Homo sapiens) (UniProt Q13177). Nature of the test: Selectivity interaction (KinomeScan (DiscoverX)) EUB0000229b PAK2. Particulars: at 10 µM.

5'-AMP-activated protein kinase catalytic subunit alpha-1, sequence (Q13131 whole entry, looked up): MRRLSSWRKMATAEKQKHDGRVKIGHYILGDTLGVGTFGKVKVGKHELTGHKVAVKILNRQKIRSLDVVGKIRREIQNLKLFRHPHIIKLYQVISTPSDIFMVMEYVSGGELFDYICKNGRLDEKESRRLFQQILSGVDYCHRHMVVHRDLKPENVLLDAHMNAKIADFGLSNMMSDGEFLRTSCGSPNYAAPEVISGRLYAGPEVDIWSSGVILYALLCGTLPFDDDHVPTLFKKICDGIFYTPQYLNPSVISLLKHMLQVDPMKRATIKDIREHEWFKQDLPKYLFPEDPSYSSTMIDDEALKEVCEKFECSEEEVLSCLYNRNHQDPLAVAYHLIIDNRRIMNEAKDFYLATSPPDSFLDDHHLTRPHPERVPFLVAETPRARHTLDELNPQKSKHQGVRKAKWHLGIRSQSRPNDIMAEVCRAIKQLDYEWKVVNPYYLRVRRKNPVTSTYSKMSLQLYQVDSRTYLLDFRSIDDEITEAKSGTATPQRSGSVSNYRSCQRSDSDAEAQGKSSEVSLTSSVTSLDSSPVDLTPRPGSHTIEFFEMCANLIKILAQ
Phosphatidylinositol 3-kinase catalytic subunit type 3, sequence (Q8NEB9 whole entry): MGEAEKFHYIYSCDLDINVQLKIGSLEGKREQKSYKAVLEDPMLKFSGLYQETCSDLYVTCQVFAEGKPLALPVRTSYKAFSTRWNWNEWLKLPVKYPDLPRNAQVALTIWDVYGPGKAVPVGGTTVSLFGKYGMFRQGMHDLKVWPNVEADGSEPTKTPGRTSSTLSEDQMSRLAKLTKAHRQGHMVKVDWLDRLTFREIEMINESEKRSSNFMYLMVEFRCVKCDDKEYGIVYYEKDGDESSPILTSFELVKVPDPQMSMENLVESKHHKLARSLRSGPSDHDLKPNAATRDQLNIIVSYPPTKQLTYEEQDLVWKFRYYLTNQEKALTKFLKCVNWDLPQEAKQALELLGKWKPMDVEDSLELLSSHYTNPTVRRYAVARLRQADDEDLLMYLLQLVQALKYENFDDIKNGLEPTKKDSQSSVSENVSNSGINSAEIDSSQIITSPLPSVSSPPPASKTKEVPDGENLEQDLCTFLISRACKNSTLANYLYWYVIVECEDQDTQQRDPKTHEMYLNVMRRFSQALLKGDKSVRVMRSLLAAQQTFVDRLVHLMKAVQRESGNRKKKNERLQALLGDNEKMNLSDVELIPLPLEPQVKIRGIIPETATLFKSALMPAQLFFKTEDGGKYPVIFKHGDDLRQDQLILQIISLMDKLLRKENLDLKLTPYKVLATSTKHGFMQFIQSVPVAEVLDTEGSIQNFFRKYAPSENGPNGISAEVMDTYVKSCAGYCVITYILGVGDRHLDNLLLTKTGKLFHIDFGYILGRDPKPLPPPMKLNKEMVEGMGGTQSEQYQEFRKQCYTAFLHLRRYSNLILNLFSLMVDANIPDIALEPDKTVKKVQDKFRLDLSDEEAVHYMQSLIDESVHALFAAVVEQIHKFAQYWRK
Nischarin (Homo sapiens), sequence (Q9Y2I1 whole entry): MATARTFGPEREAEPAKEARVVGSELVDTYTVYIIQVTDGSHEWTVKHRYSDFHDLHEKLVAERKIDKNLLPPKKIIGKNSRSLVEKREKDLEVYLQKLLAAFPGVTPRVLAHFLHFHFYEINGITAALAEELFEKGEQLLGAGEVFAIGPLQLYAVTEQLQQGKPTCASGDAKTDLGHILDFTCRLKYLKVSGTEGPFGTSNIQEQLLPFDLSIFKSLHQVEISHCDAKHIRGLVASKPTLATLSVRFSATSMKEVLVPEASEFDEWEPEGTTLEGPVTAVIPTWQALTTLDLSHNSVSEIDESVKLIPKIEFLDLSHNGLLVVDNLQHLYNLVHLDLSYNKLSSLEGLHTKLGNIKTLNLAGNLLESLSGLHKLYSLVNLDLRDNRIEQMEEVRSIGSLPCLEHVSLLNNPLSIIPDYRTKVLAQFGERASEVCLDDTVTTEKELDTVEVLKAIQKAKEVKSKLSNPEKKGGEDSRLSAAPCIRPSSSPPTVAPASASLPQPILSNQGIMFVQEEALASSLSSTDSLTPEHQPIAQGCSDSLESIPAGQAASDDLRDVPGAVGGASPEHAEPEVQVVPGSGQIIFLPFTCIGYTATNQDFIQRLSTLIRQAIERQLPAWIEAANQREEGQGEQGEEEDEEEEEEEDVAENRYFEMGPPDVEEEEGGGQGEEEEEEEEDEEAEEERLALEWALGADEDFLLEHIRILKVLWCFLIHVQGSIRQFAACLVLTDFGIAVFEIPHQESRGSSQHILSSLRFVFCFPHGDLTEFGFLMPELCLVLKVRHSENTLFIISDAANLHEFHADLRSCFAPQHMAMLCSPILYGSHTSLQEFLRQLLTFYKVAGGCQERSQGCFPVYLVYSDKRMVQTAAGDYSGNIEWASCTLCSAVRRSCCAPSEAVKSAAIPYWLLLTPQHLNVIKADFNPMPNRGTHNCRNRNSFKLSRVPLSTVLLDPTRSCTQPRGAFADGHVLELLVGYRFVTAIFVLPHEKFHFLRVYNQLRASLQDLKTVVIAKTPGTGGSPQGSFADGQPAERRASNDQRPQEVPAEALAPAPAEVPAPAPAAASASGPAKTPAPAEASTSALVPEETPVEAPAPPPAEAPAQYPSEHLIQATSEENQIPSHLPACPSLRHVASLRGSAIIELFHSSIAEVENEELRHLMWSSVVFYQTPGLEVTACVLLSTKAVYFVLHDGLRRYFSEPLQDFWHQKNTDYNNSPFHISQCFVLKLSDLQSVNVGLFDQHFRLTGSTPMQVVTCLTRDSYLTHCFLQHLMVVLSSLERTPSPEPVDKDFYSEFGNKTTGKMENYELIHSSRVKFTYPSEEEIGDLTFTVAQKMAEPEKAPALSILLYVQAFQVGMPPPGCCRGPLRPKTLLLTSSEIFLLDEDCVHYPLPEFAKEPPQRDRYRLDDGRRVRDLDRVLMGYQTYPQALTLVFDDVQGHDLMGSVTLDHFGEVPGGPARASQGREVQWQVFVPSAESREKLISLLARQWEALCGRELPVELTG
Serine/threonine-protein kinase PAK 2 (Homo sapiens), sequence (Q13177 whole entry): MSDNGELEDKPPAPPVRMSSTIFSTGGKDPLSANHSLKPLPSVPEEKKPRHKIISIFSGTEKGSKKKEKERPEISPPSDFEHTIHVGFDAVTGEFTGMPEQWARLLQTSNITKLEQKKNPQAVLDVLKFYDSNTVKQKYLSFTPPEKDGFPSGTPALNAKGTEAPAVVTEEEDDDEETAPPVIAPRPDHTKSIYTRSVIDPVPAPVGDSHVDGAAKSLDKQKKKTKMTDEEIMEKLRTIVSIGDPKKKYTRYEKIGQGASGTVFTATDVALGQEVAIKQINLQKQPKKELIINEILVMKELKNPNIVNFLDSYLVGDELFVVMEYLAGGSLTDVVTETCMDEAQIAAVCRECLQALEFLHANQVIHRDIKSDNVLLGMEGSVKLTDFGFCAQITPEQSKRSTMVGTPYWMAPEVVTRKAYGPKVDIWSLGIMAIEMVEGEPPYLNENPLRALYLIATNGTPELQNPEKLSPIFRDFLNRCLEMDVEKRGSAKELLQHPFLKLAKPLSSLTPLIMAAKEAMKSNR
Epidermal growth factor receptor, sequence (P00533 whole entry): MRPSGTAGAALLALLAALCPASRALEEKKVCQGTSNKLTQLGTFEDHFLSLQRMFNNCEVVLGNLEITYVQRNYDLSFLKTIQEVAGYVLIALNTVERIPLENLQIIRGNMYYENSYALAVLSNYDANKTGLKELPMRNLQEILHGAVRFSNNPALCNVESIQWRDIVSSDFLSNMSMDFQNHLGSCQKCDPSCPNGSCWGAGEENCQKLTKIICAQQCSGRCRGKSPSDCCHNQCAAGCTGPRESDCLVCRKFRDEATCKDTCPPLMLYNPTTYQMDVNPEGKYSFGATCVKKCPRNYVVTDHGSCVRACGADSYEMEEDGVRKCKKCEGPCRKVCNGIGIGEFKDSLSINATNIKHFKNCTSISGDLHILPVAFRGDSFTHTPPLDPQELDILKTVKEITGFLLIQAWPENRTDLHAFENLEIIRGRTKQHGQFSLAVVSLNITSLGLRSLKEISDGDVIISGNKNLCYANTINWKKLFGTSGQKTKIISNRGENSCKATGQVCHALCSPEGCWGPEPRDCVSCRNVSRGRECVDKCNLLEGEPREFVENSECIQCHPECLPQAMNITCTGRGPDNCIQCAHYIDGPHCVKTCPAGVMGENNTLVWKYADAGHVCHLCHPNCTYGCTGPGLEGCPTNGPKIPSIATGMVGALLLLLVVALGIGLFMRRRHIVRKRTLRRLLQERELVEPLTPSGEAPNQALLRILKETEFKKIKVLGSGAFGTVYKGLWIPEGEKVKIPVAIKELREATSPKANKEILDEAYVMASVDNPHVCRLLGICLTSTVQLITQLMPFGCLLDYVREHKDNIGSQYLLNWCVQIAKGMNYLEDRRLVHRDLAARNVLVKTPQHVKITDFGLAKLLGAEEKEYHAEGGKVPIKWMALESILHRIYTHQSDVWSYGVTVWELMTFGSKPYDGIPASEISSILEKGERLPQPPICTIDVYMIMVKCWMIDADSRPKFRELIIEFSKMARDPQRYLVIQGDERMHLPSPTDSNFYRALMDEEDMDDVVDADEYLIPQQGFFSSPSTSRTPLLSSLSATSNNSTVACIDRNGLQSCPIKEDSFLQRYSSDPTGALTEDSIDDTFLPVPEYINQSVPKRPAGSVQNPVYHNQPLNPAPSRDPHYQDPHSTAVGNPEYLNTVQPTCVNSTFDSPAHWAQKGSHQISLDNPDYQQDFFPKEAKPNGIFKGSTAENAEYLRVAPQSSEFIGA

Regarding `Cn1cc(-n2cnc3c(NCc4nc5cc(Cl)c(Cl)cc5[nH]4)nc(N4CCOCC4)nc32)cn1`, the % of inhibition in [1] was -28%.
With `N#Cc1cccc(-c2c[nH]c3ncnc(N4CCOCC4)c23)c1`, the % of control in test [2] turned out to be 100%.
`CC(=O)c1cc(-c2ccccc2OCC2CC2)c2ncccn12` had a % of control at Nischarin (Homo sapiens) of 87%.
With `CC[C@@H]1[C@H](F)C(=O)N[C@@H]1COc1nccc2cc(C(N)=O)c(OC)cc12` [ZIMLOVISERTIB], in test [3], the % of inhibition was 7.8%.
On to `CNCCN1CCC(c2cc(CN(C)C(=O)c3cccc(Oc4ccccc4)c3)ccn2)CC1`, for which the % activity in test [4] was over 90%.
Turning to `C=CC(=O)Nc1cccc(C(=O)Nc2ccc(Nc3cc(-c4[nH]c(SC)nc4C)ccn3)cc2)c1`, the % of control in test [5] (at 1 µM) worked out at 85%; in test [5] (at 5 µM) it was 54%.
As for `CN(C)C/C=C/C(=O)Nc1ccc(C(=O)N2CCCC(Nc3ncc(Cl)c(-c4c[nH]c5ccccc45)n3)C2)cc1` (configuration not stated), in test [6], the % of control came to 94%.
In [7], `COc1cc(Nc2nc(C)cc(-c3cnn4nc(OC)ccc34)n2)cc(C(F)(F)F)c1` came in with a % of control of 86%.
In the case of `Cc1ccc(-c2ccc3c(ccc4sc5c(c43)NC[C@@H](C)NC5=O)n2)cn1`, in test [8], the % of inhibition is 41%.
On to `Nc1cnc(N2CCc3cc(S(=O)(=O)Nc4c(F)cc(Cl)cc4F)cc(N4CCCC4=O)c32)nc1` [TP-020n], for which the % of control in [9] amounted to 82%; in test [10], 77%; in test [11] it was 88%; in test [12], 74%; in test [13], 100%.
Turning to `CC(=O)Nc1cccc(-n2c(=O)n(C3CC3)c(=O)c3c(Nc4ccc(I)cc4F)n(C)c(=O)c(C)c32)c1`, the % of control at Insulin receptor worked out at 129%.
As for `COc1cc(N(C)c2ccnc3ccc(C(F)(F)F)cc23)cc(OC)c1OC`, the % binding in test [14] came to 77%.
